Assay results from patent US20260055141A1, “COMPOSITIONS AND METHODS FOR CONTROLLING FOOD INTAKE, ENERGY EXPENDITURE, AND BODY WEIGHT FOR THE TREATMENT OF OBESITY AND METABOLIC DISEASES” (The Trustees of the University of Pennsylvania, priority 2022, published 2026).
Where two headings read alike, the source gives them in different places. Non-standard residues stand in square brackets, D forms with d. No end group written: not given here.

Assays:
[1] = format: in vivo, rat; settings: for food intake compared to control: SU75-36 20 or 200 μg, SU75-37 20 μg, 1, 3, 6, 24 h; for body weight change after 24 hours: any dosage, rats fed chow or HFD; for kaolin intake (pica, model of malaise and nausea): rat, in vivo
Method: (§1) Adult male Sprague-Dawley rats (Charles River) were individually housed under a 12 h-light: 12 h-dark cycle in a temperature and humidity-controlled satellite vivarium and had ad libitum access to water and chow (5001, LabDiet) or a 60% high fat diet (HFD): D12492, Research Diets) and when applicable had ad libitum access to kaolin pellets (K50001, Research Diets). Rats were exposed to kaolin for at least 5 days prior to measuring kaolin consumption in pica testing. Except for studies conducted in the bioDAQ, for all feeding studies rats were housed in hanging wire cages to allow for accurate measurement of food spillage. Experiments were conducted under the National Institutes for Health Guide for the Care and Use of Laboratory Animals and all procedures were approved by the Institutional Animal Care and Use Committee at the University of Pennsylvania.
(§2) For cannula implantation, rats were anesthetized by intraperitoneal injection of a mixture containing ketamine (90 mg/kg, Butler Animal Health Supply), xylazine (2.7 mg/kg, Anased), and acepromazine (0.64 mg/kg, Butler Animal Health Supply) (KAX) and then placed into a stereotaxic apparatus. Each rat was stereotaxically implanted with a guide cannula (26-ga, Plastics One) aimed at the fourth ventricle (guide cannula coordinates: on midline. 2.5 mm anterior to occipital suture, 5.2 mm ventral to skull; internal cannula aimed 7.2 mm ventral to skull) or the lateral ventricle (guide cannula coordinates: 1.5 mm lateral to midline, 0.9 mm posterior to bregma. 1.8 mm ventral to skull; internal cannula aimed 3.8 mm ventral to skull). For all cannulas, dummies (no projection beyond guide) were inserted in the guide cannula and left until infusions were performed. For all surgeries, rats received post-operative temperature support and analgesia was provided immediately following surgery and for two post-operative days (2 mg/kg meloxicam).
(§3) For all studies measuring food intake following drug treatment, central injections were given at a volume of 2 μL using a Hamilton syringe terminating in an injector tip extending 2.0 mm beyond the guide cannula. For acute treatment days, rats were food deprived for 2 hours before the dark cycle and injections were done immediately prior to the dark cycle onset. Food and kaolin intake was measured 1, 3, 6, and 24 hours after injections were completed and food crumbs were weighed and accounted for between each timepoint. Body weight was measured during injections and 24 hours after. Injection treatments were organized in a counterbalanced, within-subjects design and separated by ≥72 h.
In a separate experiment, chow maintained (n=10) and diet-induced obese (DIO) rats (n=12) were administered 20 μg SU75-36, 200 μg SU75-36, or 20 μg SU75-37 by intracerebroventricular injection to the lateral ventricle and observed over 24 hours. One group of rats was administered a vehicle without a GPR75 inhibitor as a negative control. All rats were given ad libitum access to access to water, kaolin pellets to assess pica behavior, and food, either a standard chow diet or a 60% high fat diet (HFD). The food intake of chow (FIG. 8A) or HFD (FIG. 8B), and kaolin take of chow-maintained rats (FIG. 8C) and HFD-maintained rats (FIG. 8D) of each rat was observed 1, 3, 6, and 24 hours after administration of the GPR75 inhibitor.
Rats were weighed at the beginning of the experiment and 24 hours after administration of the GPR75 inhibitor. The weight change of each rat after 24 hours was then calculated. […] (FIGS. 8E, 8F).

[2] = Peripheral (IP) administration, food intake and body weight in DIO mice; format: in vivo, mouse; settings: for 24 h food intake: IP 0.5 and 5 mg/kg, male HFD fed mice (FIG. 12 legend)
Method: DIO mice were administered 0.5 mg/kg or 5.0 mg/kg of either SU75-36 or SU75-37 in a vehicle by […] injection and observed over 24 hours. One group of mice was administered a vehicle as a negative control. All mice were given ad libitum access to water and a 60% HFD. […] (FIGS. 12A and 12C). […] Mice were weighed at the beginning of the experiment and 24 hours after administration. The weight change of each mouse after 24 hours was then calculated. […] (FIGS. 12B and 12D) This experiment was then repeated for SU75-37 at a higher dose (10 mg/kg). […] (FIG. 13A).

[3] = 4th ventricle intracerebroventricular injection, food intake and body weight in DIO rats; format: in vivo, rat; settings: for food intake compared to control: SU75-36 20, 100 or 200 μg, SU75-37 20 μg, 60% HFD, 1, 3, 6, 24 h
Method: as §1, §2
as §3, with “h. […]” for “h.”
Rats were weighed at the beginning of the experiment and 24 hours after administration of the GPR75 inhibitor. The weight change of each rat after 24 hours was then calculated. […]

[4] = Lateral intraventricular injection in HEPES buffer, food intake and body weight in DIO rats; format: in vivo, rat; settings: lateral ventricle; for food intake compared to control: 60% HFD, 1, 3, 6, 24 h
Method: Diet induced obese (DIO) rats (n=4) were administered 150 μg/3 μL SU75-36 in a vehicle or in a HEPES buffer by lateral intraventricular injection and observed over 24 hours. One group of rats was administered a Vehicle of 50% DMSO in HEPES as a negative control. All rats were given ad libitum access to water and 60% HFD. […] (FIG. 10A). […] Rats were weighed at the beginning of the experiment and 24 hours after administration. The weight change of each rat after 24 hours was then calculated. […] (FIG. 10B). In a separate experiment, diet induced obese (DIO) rats (n=4) were administered 133 μg/2 μL SU75-37 in a HEPES buffer by lateral intraventricular injection and observed over 24 hours. One group of rats was administered a vehicle without a GPR75 inhibitor as a negative control. All rats were given ad libitum access to water and a 60% high fat diet (HFD). SU75-37 was optimized using an acetate salt precipitation rather than a TFA salt precipitation to maintain a neutral >4.5 pH in HEPES buffer solution. The food intake of each rat was observed 1, 3, 6, and 24 hours after administration. […] Rats were weighed at the beginning of the experiment and 24 hours after administration. The weight change of each rat after 24 hours was then calculated. […] (FIG. 11B).

[5] = Circular dichroism (CD) spectroscopy, secondary structure; settings: 40 μM in 0.5% saline
[6] = lateral ventricle, chow and HFD rats
[7] = 5 mg/kg peripheral injection, DIO mice, 60% HFD, 3 and 24 h

H[dS]QGTFTSDLSKYLEEEVREFIWLKNGGPSDVNTDRPGLLDLK-NH2 [SU75-36]
food intake compared to any of the other groups ([1]; lateral ventricle, 200 μg, chow and HFD rats): further decrease | food intake compared to control [1, 6]: significant decrease in food intake | body weight change after 24 hours ([1]; lateral ventricle): significant decrease in weight | kaolin intake (pica, model of malaise and nausea) [1]: absence of kaolin intake | food intake compared to control [2, 7]: significant decrease in food intake | body weight change after 24 hours ([2]; 0.5 or 5.0 mg/kg peripheral injection, DIO mice): significant decrease in weight | 24 h food intake [2]: suppresses | food intake compared to any of the other groups ([3]; 200 μg, 60% HFD): further decrease | food intake compared to control [3]: significant decrease in food intake | body weight change after 24 hours ([3]; any amount (20, 100, 200 μg), 60% HFD): significant decrease in weight | food intake compared to any of the other groups ([4]; 150 μg/3 μL in HEPES buffer, DIO rats): further decrease | food intake compared to control ([4]; 150 μg/3 μL in vehicle (50% DMSO in HEPES) or HEPES buffer, DIO rats): significant decrease in food intake | food intake compared to control ([4]; 150 μg/3 μL in vehicle (50% DMSO in HEPES) or HEPES buffer, DIO rats, listed as 36): suppresses | body weight change after 24 hours compared to any other of the groups ([4]; 150 μg/3 μL with HEPES buffer, DIO rats): further decrease | body weight change after 24 hours ([4]; 150 μg/3 μL, DIO rats): significant decrease in weight | secondary structure (folded state) from CD spectra [5]: typical α-helix

TFTSDLSKYLEEEVREFIWLKNGGPSDVNTDRPGLLDLK-NH2 [SU75-37]
food intake compared to control [1, 6]: significant decrease in food intake | body weight change after 24 hours ([1]; lateral ventricle): significant decrease in weight | kaolin intake (pica, model of malaise and nausea) [1]: absence of kaolin intake | food intake compared to control [2, 7]: significant decrease in food intake | body weight change after 24 hours ([2]; IP 10 mg/kg, HFD fed mice): significant decrease in weight | food intake compared to control ([2]; IP 10 mg/kg, HFD fed mice, 10 mg/kg): significant decrease in food intake | food intake compared to control ([2]; IP 10 mg/kg, HFD fed mice, listed as 37, 10 mg/kg): suppresses | 24 h food intake [2]: suppresses | food intake compared to control [3]: significant decrease in food intake | food intake compared to control ([4]; 133 μg/2 μL in HEPES buffer, acetate salt precipitation, DIO rats): significant decrease in food intake | body weight change after 24 hours ([4]; 133 μg/2 μL in HEPES buffer, DIO rats): significant decrease in weight | 24 h food intake ([4]; 150 μg/3 μL in HEPES buffer, male HFD fed rats (FIG. 11 legend)): suppresses | secondary structure (folded state) from CD spectra [5]: typical α-helix
